The source of these data is patent US11617796B2, “Conjugate of minoxidil and peptide” (CAREGEN CO., LTD., priority 2016, dated 2023).

Where no end group is shown, it is not given here.

One assay concerns VEGF. In words: VEGF mRNA amount by RT-PCR in HUVECs. In kind it is cell-based, human. Conditions: 5 and 50 uM, 24 hours, compared with Minoxidil, FIGS. 4 to 6. As for the experimental part:
(§1) VEGF was expressed by HUVECs and TGFβ1 was expressed by hair follicle dermal papilla cells. Two cells were placed in each 6-well plate at a rate of 1×10^3 cells/well. After 24 hours of incubation in a CO2 incubator, the medium was replaced with serum-free DMEM medium. Three compounds of the present invention and Minoxidil were added to the cells at 5 uM and 50 uM concentration, respectively, and incubated for 24 hours. After incubated cells were harvested, RNA was extracted using an RNA extraction kit and RT-PCR was performed to confirm the degree of expression of VEGF and TGFβ1.

A further assay concerns phospho-Smad1/5/8. The assay is described as follows: Translocation of phospho-Smad1/5/8 to nucleus in the presence of BMP2 (Western blotting). In kind it is cell-based. Conditions: in the presence of BMP2, 5 and 50 uM, compared with Minoxidil; FIGS. 12 and 13. The protocol: Hair follicle dermal papilla cells were placed in each well of a 6-well plate at 1×10^3 cells/well. Incubation was performed in a CO2 incubator for 24 hours. After replacing the medium with serum-free DMEM medium, the Minoxidil, the Minoxidil-WINT, and the WINT were added respectively to the cells at a concentration of 5 uM and 50 uM, and then incubated for 24 hours. Protein was extracted using a protein extraction kit (extraction of each of the nuclear/cytoplasmic protein). Western blotting was carried out in the same manner as in Example 3-2 except that an anti-beta-catenin antibody, an anti-HDAC antibody, an anti-alpha tubulin antibody as primary antibodies were used.
The experiment was carried out in the same manner as in Example 5, except that in the presence of BMP2, the Minoxidil-Nokkin is used instead of the Minoxidil-WINT, and an anti-P-Smad1/5/8 antibody and an anti-HDAC1 antibody were used as primary antibodies.
For orientation: In western blotting, separated proteins are transferred to a membrane and probed.

The subject of a further assay is TGFβ1. The assay is described as follows: TGFβ1 mRNA amount by RT-PCR in hair follicle dermal papilla cells. Conditions: 5 and 50 uM, 24 hours, compared with Minoxidil, FIGS. 4 to 6. In kind it is cell-based, human. The protocol: as §1
The next assay deals with β-catenin. In words: Translocation of β-catenin to nucleus in hair follicle dermal papilla cells (Western blotting). Conditions: 5 and 50 uM, 24 hours, same concentration; FIG. 10. Format: cell-based. As for the experimental part:
Hair follicle dermal papilla cells were placed in each well of a 6-well plate at 1×10^3 cells/well. Incubation was performed in a CO2 incubator for 24 hours. […] Protein was extracted using a protein extraction kit (extraction of each of the nuclear/cytoplasmic protein). Western blotting was carried out in the same manner as in Example 3-2 except that an anti-beta-catenin antibody, an anti-HDAC antibody, an anti-alpha tubulin antibody as primary antibodies were used.

Regarding “Minoxidil-Nokkin: Minoxidil chemically conjugated to Nokkin peptide of SEQ ID NO: 1 (ELIEHGGGRPAD) (also: minoxidil conjugate, attachment site not given here)”, the “expression of VEGF (mRNA)” value in the assay on VEGF is “significantly higher than that of Minoxidil”. Moreover, in the assay with phospho-Smad1/5/8, the “delivery of P-Smad1/5/8 into the nucleus” value is listed as “reduced as compared to the treatment with the Minoxidil”. Besides, in the assay with TGFβ1, the “expression of TGFβ1 (mRNA)” value is reported as “significantly lower than that of the Minoxidil”.

`Nc1cc(N2CCCCC2)nc(N)[n+]1[O-]` [Minoxidil]: in the assay with β-catenin, the “degree of translocation of β-catenin to the nucleus” value is on record as “significantly lower degree of translocation of β-catenin to the nucleus”.
